The record followed here is US12281122B1, “PI3K inhibitors” (Cogent Biosciences, Inc., priority 2023, dated 2025).

For assay [1], the system named is SKBR3 (PI3Kα-Wild Type) cell line. Description: HTRF phospho-AKT(S473) cell assay in SKBR3 cells. It counts as cell-based, human. Conditions: Homo sapiens, SK-BR-3; SKBR3 (PI3Kα-Wild Type) cells, HTRF phospho-AKT(S473), 2 hours compound incubation, PDGF-BB stimulated. In outline: (§1)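 T47D (PI3Kα-H1047R; RPMI, 10% FBS, insulin) and SKBR3 (wild-type PI3Kα; McCoy's 5A, 10% FBS) cells treated 2 h at 37 °C with 12-point 1:3 dilutions, top 5 μM and 10 μM respectively, ≤0.5% DMSO. SKBR3 stimulated with 70 ng/ml PDGF-BB for the last 15 min; lysate pAKT(S473) by HTRF, IC50 from curves.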
On the technique in general: Time-resolved FRET reads energy transfer from a long-lived donor to a nearby acceptor.

Assay [2] concerns T47D (PI3Kα-H1047R) cell line. Description: HTRF phospho-AKT(S473) cell assay in T47D cells. It is filed as cell-based, human. Conditions: Homo sapiens; T47D (PI3Kα-H1047R) cells, HTRF phospho-AKT(S473), 2 hours compound incubation. In outline: as §1

One may read the IC50 as the concentration that gives 50% inhibition. A higher IC50 goes with a need for much substance.

Turning to `Cc1cc([C@@H](C)Nc2ccc(Cl)nc2C(=O)NS(C)(=O)=O)c2nc(N3CCC(c4cnccn4)CC3)n(C)c(=O)c2c1` [Compound 398, (R)-6-chloro-3-((1-(3,6-dimethyl-4-oxo-2-(4-(pyrazin-2-yl)piperidin-1-yl)-3,4-dihydroquinazolin-8-yl)ethyl)amino)-N-(methylsulfonyl) picolinamide], the IC50 in assay [1] was at least 5 µM; in assay [2], 0.25 to 0.5 µM.

As for `Cc1cc([C@@H](C)Nc2ccc(Cl)nc2C(=O)NS(C)(=O)=O)c2nc(N3CCC(c4cncc(C)n4)CC3)n(C)c(=O)c2c1` [Compound 399, (R)-6-chloro-3-((1-(3,6-dimethyl-2-(4-(6-methylpyrazin-2-yl)piperidin-1-yl)-4-oxo-3,4-dihydroquinazolin-8-yl)ethyl)amino)-N-(methylsulfonyl) picolinamide], the half-inhibitory concentration (IC50) was at least 5 µM in assay [1] and below 0.25 µM in assay [2].

On to `COc1cncc(C2CCN(c3nc4c([C@@H](C)Nc5ccc(Cl)nc5C(=O)NS(C)(=O)=O)cc(C)cc4c(=O)n3C)CC2)n1` [Compound 400, (R)-6-chloro-3-((1-(2-(4-(6-methoxypyrazin-2-yl)piperidin-1-yl)-3,6-dimethyl-4-oxo-3,4-dihydroquinazolin-8-yl)ethyl)amino)-N-(methylsulfonyl) picolinamide], for which the concentration for half-maximal inhibition (IC50) in assay [1] was in the range of 1 to 5 µM; in assay [2] it was 0.25 to 0.5 µM.

On to `Cc1cc([C@@H](C)Nc2ccc(Cl)nc2C(=O)NS(C)(=O)=O)c2nc(N3C[C@@H]4[C@H](C3)[C@H]4c3nn(C)cc3Cl)n(C)c(=O)c2c1` [Compound 401, 6-chloro-3-(((R)-1-(2-((1R,5S,6R)-6-(4-chloro-1-methyl-1H-pyrazol-3-yl)-3-azabicyclo[3.1.0]hexan-3-yl)-3,6-dimethyl-4-oxo-3,4-dihydroquinazolin-8-yl)ethyl)amino)-N-(methylsulfonyl) picolinamide], for which the IC50 was at least 5 µM in assay [1] and 0.25 to 0.5 µM in assay [2].

On to `Cc1cc([C@@H](C)Nc2ccc(Cl)nc2C(=O)NS(C)(=O)=O)c2nc(N3C[C@@H]4[C@H](C3)[C@H]4c3ccc(C#N)nc3)n(C)c(=O)c2c1` [Compound 402, 6-chloro-3-(((R)-1-(2-((1R,5S,6S)-6-(6-cyanopyridin-3-yl)-3-azabicyclo[3.1.0]hexan-3-yl)-3,6-dimethyl-4-oxo-3,4-dihydroquinazolin-8-yl)ethyl)amino)-N-(methylsulfonyl) picolinamide], for which the IC50 in assay [1] was 1 to 5 µM; in assay [2], below 0.25 µM.

Consider `Cc1ccc(C2CCN(c3nc4c([C@@H](C)Nc5ccc(Cl)nc5C(=O)NS(C)(=O)=O)cc(C)cc4c(=O)n3C)CC2)nc1` [Compound 403, (R)-6-chloro-3-((1-(3,6-dimethyl-2-(4-(5-methylpyridin-2-yl)piperidin-1-yl)-4-oxo-3,4-dihydroquinazolin-8-yl)ethyl)amino)-N-(methylsulfonyl) picolinamide], for which the 50% inhibitory concentration (IC50) was at least 5 µM in assay [1] and below 0.25 µM in assay [2].

For the compound `Cc1cnc(C2CCN(c3nc4c([C@@H](C)Nc5ccc(Cl)nc5C(=O)NS(C)(=O)=O)cc(C)cc4c(=O)n3C)CC2)nc1` [Compound 404, (R)-6-chloro-3-((1-(3,6-dimethyl-2-(4-(5-methylpyrimidin-2-yl)piperidin-1-yl)-4-oxo-3,4-dihydroquinazolin-8-yl)ethyl)amino)-N-(methylsulfonyl) picolinamide], the values for the IC50 in assay [1] and in assay [2] were 1 to 5 µM and below 0.25 µM, respectively.

Consider `Cc1cc([C@@H](C)Nc2ccc(Cl)nc2C(=O)NS(C)(=O)=O)c2nc(N3C[C@@H]4[C@H](C3)[C@H]4c3cnc(C)nc3)n(C)c(=O)c2c1` [Compound 405, 6-chloro-3-(((R)-1-(3,6-dimethyl-2-((1R,5S,6S)-6-(2-methylpyrimidin-5-yl)-3-azabicyclo[3.1.0]hexan-3-yl)-4-oxo-3,4-dihydroquinazolin-8-yl)ethyl)amino)-N-(methylsulfonyl) picolinamide], for which the figures for the IC50 in assay [1] and in assay [2] were 1 to 5 µM and below 0.25 µM, respectively.

Turning to `Cc1cc([C@@H](C)Nc2ccc(Cl)nc2C(=O)NS(C)(=O)=O)c2nc(N3CCC(C)(c4nn(C)cc4F)CC3)n(C)c(=O)c2c1` [Compound 406, (R)-6-chloro-3-((1-(2-(4-(4-fluoro-1-methyl-1H-pyrazol-3-yl)-4-methylpiperidin-1-yl)-3,6-dimethyl-4-oxo-3,4-dihydroquinazolin-8-yl)ethyl)amino)-N-(methylsulfonyl) picolinamide], the IC50 was at least 5 µM in assay [1] and 0.25 to 0.5 µM in assay [2].

Turning to `Cc1cc([C@@H](C)Nc2ccc(Cl)nc2C(=O)NS(C)(=O)=O)c2nc(N3CCC(C)(c4c(F)cnn4C)CC3)n(C)c(=O)c2c1` [Compound 407, (R)-6-chloro-3-((1-(2-(4-(4-fluoro-1-methyl-1H-pyrazol-5-yl)-4-methylpiperidin-1-yl)-3,6-dimethyl-4-oxo-3,4-dihydroquinazolin-8-yl)ethyl)amino)-N-(methylsulfonyl) picolinamide], the results for the IC50 in assay [1] and in assay [2] were at least 5 µM and 0.25 to 0.5 µM, respectively.

On to `COc1cnc(C2CCN(c3nc4c([C@@H](C)Nc5ccc(Cl)nc5C(=O)NS(C)(=O)=O)cc(C)cc4c(=O)n3C)CC2)cn1` [Compound 408, (R)-6-chloro-3-((1-(2-(4-(5-methoxypyrazin-2-yl)piperidin-1-yl)-3,6-dimethyl-4-oxo-3,4-dihydroquinazolin-8-yl)ethyl)amino)-N-(methylsulfonyl) picolinamide], for which the half-maximal inhibitory concentration (IC50) is at least 5 µM in assay [1] and below 0.25 µM in assay [2].

Take `Cc1cc([C@@H](C)Nc2ccc(Cl)nc2C(=O)NS(C)(=O)=O)c2nc(N3C[C@@H]4[C@H](C3)[C@H]4c3cnn(C)n3)n(C)c(=O)c2c1` [Compound 409, 6-chloro-3-(((R)-1-(3,6-dimethyl-2-((1R,5S,6R)-6-(2-methyl-2H-1,2,3-triazol-4-yl)-3-azabicyclo[3.1.0]hexan-3-yl)-4-oxo-3,4-dihydroquinazolin-8-yl)ethyl)amino)-N-(methylsulfonyl) picolinamide]: the IC50 in assay [1] is 1 to 5 µM; in assay [2], below 0.25 µM.

With `Cc1cc([C@@H](C)Nc2ccc(Cl)nc2C(=O)NS(C)(=O)=O)c2nc(N3CCC(c4nn(C)cc4F)CC3)n(C3CC3)c(=O)c2c1` [Compound 410, (R)-6-chloro-3-((1-(3-cyclopropyl-2-(4-(4-fluoro-1-methyl-1H-pyrazol-3-yl)piperidin-1-yl)-6-methyl-4-oxo-3,4-dihydroquinazolin-8-yl)ethyl)amino)-N-(methylsulfonyl) picolinamide], the 50% inhibitory concentration (IC50) in assay [1] is at least 5 µM; in assay [2] it was 0.25 to 0.5 µM.

Regarding `C[C@@H](Nc1ccc(Cl)nc1C(=O)NS(C)(=O)=O)c1cc(F)cc2c(=O)n(C)c(N3C[C@@H]4[C@H](C3)[C@H]4c3cnn(C)c3)nc12` [Compound 411, 6-chloro-3-(((R)-1-(6-fluoro-3-methyl-2-((1R,5S,6S)-6-(1-methyl-1H-pyrazol-4-yl)-3-azabicyclo[3.1.0]hexan-3-yl)-4-oxo-3,4-dihydroquinazolin-8-yl)ethyl)amino)-N-(methylsulfonyl) picolinamide], the IC50 was 1 to 5 µM in assay [1] and below 0.25 µM in assay [2].

Take `Cc1cc([C@@H](C)Nc2ccc(Cl)nc2C(=O)NS(C)(=O)=O)c2nc(N3CCC(c4c(F)cnn4C)CC3)n(C)c(=O)c2c1` [Compound 412, (R)-6-chloro-3-((1-(2-(4-(4-fluoro-1-methyl-1H-pyrazol-5-yl)piperidin-1-yl)-3,6-dimethyl-4-oxo-3,4-dihydroquinazolin-8-yl)ethyl)amino)-N-(methylsulfonyl) picolinamide]: the IC50 was 1 to 5 µM in assay [1] and below 0.25 µM in assay [2].

In the case of `Cc1cc([C@@H](C)Nc2ccc(Cl)nc2C(=O)NS(C)(=O)=O)c2nc(N3CCC(c4ccn(C(F)F)n4)CC3)n(C)c(=O)c2c1` [Compound 413, (R)-6-chloro-3-((1-(2-(4-(1-(difluoromethyl)-1H-pyrazol-3-yl)piperidin-1-yl)-3,6-dimethyl-4-oxo-3,4-dihydroquinazolin-8-yl)ethyl)amino)-N-(methylsulfonyl) picolinamide], the values for the 50% inhibitory concentration (IC50) in assay [1] and in assay [2] were 1 to 5 µM and below 0.25 µM, respectively.

For the compound `Cc1cc([C@@H](C)Nc2ccc(Cl)nc2C(=O)NS(C)(=O)=O)c2nc(N3CCC(c4ccnn4C(F)F)CC3)n(C)c(=O)c2c1` [Compound 414, (R)-6-chloro-3-((1-(2-(4-(1-(difluoromethyl)-1H-pyrazol-5-yl)piperidin-1-yl)-3,6-dimethyl-4-oxo-3,4-dihydroquinazolin-8-yl)ethyl)amino)-N-(methylsulfonyl) picolinamide], the figures for the half-maximal inhibitory concentration (IC50) in assay [1] and in assay [2] were 1 to 5 µM and below 0.25 µM, respectively.

Regarding `Cc1cc([C@@H](C)Nc2ccc(Cl)nc2C(=O)NS(C)(=O)=O)c2nc(N3C[C@@H]4[C@H](C3)[C@H]4c3nn(C)cc3C)n(C)c(=O)c2c1` [Compound 415, 6-chloro-3-(((R)-1-(2-((1R,5S,6R)-6-(1,4-dimethyl-1H-pyrazol-3-yl)-3-azabicyclo[3.1.0]hexan-3-yl)-3,6-dimethyl-4-oxo-3,4-dihydroquinazolin-8-yl)ethyl)amino)-N-(methylsulfonyl) picolinamide], the IC50 in assay [1] was 1 to 5 µM; in assay [2] it was below 0.25 µM.

`Cc1cc([C@@H](C)Nc2ccc(Cl)nc2C(=O)NS(C)(=O)=O)c2nc(N3C[C@@H]4[C@H](C3)[C@H]4n3ccc(C)n3)n(C)c(=O)c2c1` [Compound 416, 6-chloro-3-(((R)-1-(3,6-dimethyl-2-((1R,5S,6S)-6-(3-methyl-1H-pyrazol-1-yl)-3-azabicyclo[3.1.0]hexan-3-yl)-4-oxo-3,4-dihydroquinazolin-8-yl)ethyl)amino)-N-(methylsulfonyl) picolinamide]: the IC50 is 1 to 5 µM in assay [1] and below 0.25 µM in assay [2].
